Data on 28 compounds can be found in ChEMBL document CHEMBL1151577, “The inhibition of C5a receptor binding by analogs of L-156,602, a cyclic hexadepsipeptide antibiotic” (Bioorg Med Chem Lett, 1992).

Some results are limits rather than exact numbers.

Assay [1] deals with T1, C5a anaphylatoxin chemotactic receptor 1 (Homo sapiens) (UniProt P21730).
T1 sequence (whole entry): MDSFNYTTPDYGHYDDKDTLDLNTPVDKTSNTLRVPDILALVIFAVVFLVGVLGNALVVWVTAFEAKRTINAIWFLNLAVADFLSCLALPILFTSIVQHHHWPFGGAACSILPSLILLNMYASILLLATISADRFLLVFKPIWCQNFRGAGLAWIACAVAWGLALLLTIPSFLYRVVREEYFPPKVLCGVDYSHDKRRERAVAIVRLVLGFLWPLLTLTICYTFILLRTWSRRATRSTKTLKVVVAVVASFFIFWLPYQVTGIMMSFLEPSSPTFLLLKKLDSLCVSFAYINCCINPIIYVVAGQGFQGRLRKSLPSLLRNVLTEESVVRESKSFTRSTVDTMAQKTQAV
Kind of assay: Inhibition of radiolabeled C5a binding to its membrane bound C5a anaphylatoxin chemotactic receptor.

Assay [2] addresses T1, C5a anaphylatoxin chemotactic receptor 1 (Homo sapiens). Kind of assay: Nonspecific degranulation of polymorho neutrophils as measured by myeloperoxidase (MPO) release in a whole functional cell assay.

Consider `CC[C@H](C)C[C@H]1CC[C@](O)([C@](C)(O)C(=O)N[C@@H]2C(=O)N3[C@H](CCCN3C)C(=O)N(O)[C@@H](C)C(=O)NCC(=O)N3[C@@H](CCCN3C)C(=O)N(O)[C@H](C)C(=O)O[C@H]2C(C)C)O[C@@H]1C`, for which, in assay [1], the Activity was determined as 11 µg/mL. This compound also had a Concentration causing nonspecific degranulation (MPO release) in assay [2] of 10 µg/mL.

`CC[C@H](C)C[C@H]1CC[C@](O)([C@](C)(O)C(=O)N[C@@H]2C(=O)N3NCCC[C@@H]3C(=O)N(OC)[C@@H](C)C(=O)NCC(=O)N3NCCC[C@H]3C(=O)N(OC)[C@H](C)C(=O)O[C@H]2C(C)C)O[C@@H]1C`: the Activity in assay [1] was 6 µg/mL. The compound further yielded a Concentration causing nonspecific degranulation (MPO release) in assay [2] of 3 µg/mL.

As to `CC[C@H](C)C[C@H]1CC[C@](O)([C@](C)(O)C(=O)N[C@@H]2C(=O)N3NCCC[C@@H]3C(=O)N[C@@H](C)C(=O)NCC(=O)N3NCCC[C@H]3C(=O)N(O)[C@H](C)C(=O)O[C@H]2C(C)C)O[C@@H]1C`, the Activity in assay [1] was greater than 100 µg/mL.

Turning to `CC[C@H](C)C[C@H]1CC[C@](O)([C@](C)(O)C(=O)N[C@@H]2C(=O)N3NCCC[C@@H]3C(=O)N(C(C)=O)[C@@H](C)C(=O)NCC(=O)N3NCCC[C@H]3C(=O)N(O)[C@H](C)C(=O)O[C@H]2C(C)C)O[C@@H]1C`, the Activity in assay [1] was found to be 4 µg/mL. In assay [2], the Concentration causing nonspecific degranulation (MPO release) stood at 0.3 µg/mL.

Take `CC(O)C(=O)N[C@@H]1C(=O)N2NCCC[C@@H]2C(=O)N(O)[C@@H](C)C(=O)NCC(=O)N2NCCC[C@H]2C(=O)N(O)[C@H](C)C(=O)O[C@H]1C(C)C` (stereo in doubt; 26): the Activity in assay [1] was greater than 100 µg/mL. The same compound registered a Concentration causing nonspecific degranulation (MPO release) in assay [2] greater than 20 µg/mL.

Compound `CC[C@@H](C)CC1CCC(O)([C@](C)(O)C(=O)NC2C(=O)N3NCCC[C@@H]3C(=O)N(O)[C@@H](C)C(=O)NCCC(=O)N3NCCC[C@H]3C(=O)N(O)[C@H](C)C(=O)O[C@H]2C(C)C)OC1C` (some centres undefined) displayed an Activity in assay [1] greater than 100 µg/mL. The Concentration causing nonspecific degranulation (MPO release) in assay [2] is greater than 50 µg/mL.

`CC[C@H](C)C[C@H]1CC[C@](O)([C@](C)(O)C(=O)N[C@@H]2C(=O)N3CCCC[C@@H]3C(=O)N(O)[C@@H](C)C(=O)NCC(=O)N3NCCC[C@H]3C(=O)N(O)[C@H](C)C(=O)O[C@H]2C(C)C)O[C@@H]1C` displayed an Activity in assay [1] of 75 µg/mL. The Concentration causing nonspecific degranulation (MPO release) in assay [2] was determined as 20 µg/mL.

In assay [1], `CC[C@H](C)C[C@H]1CC[C@](O)([C@](C)(O)C(=O)N[C@@H]2C(=O)N3NCCC[C@@H]3C(=O)N(O)[C@@H](C)C(=O)NCC(=O)N3NCCC[C@H]3C(=O)N[C@H](C)C(=O)O[C@H]2C(C)C)O[C@@H]1C` gave an Activity of 21 µg/mL. The compound also displayed a Concentration causing nonspecific degranulation (MPO release) in assay [2] of 7 µg/mL.

`CC[C@H](C)C[C@H]1CC[C@](O)([C@](C)(O)C(=O)N[C@@H]2C(=O)N3NCCC[C@@H]3C(=O)N(O)[C@@H](C)C(=O)N[C@H](C)C(=O)N3NCCC[C@H]3C(=O)N(O)[C@H](C)C(=O)O[C@H]2C(C)C)O[C@@H]1C`: in assay [1], the Activity is greater than 100 µg/mL. Besides, the Concentration causing nonspecific degranulation (MPO release) in assay [2] is greater than 100 µg/mL.

Compound `CC[C@H](C)C[C@H]1CC[C@](O)([C@](C)(O)C(=O)N[C@@H]2C(=O)N3NCCC[C@@H]3C(=O)N(OC)[C@@H](C)C(=O)NCC(=O)N3NCCC[C@H]3C(=O)N(O)[C@H](C)C(=O)O[C@H]2C(C)C)O[C@@H]1C` returned an Activity in assay [1] of 5 µg/mL. The compound further came in with a Concentration causing nonspecific degranulation (MPO release) in assay [2] of 0.3 µg/mL.

In assay [1], `CC(O)C(=O)N[C@@H]1C(=O)N2NCCC[C@@H]2C(=O)N(O)[C@@H](C)C(=O)NCC(=O)N2NCCC[C@H]2C(=O)N(O)[C@H](C)C(=O)O[C@H]1C(C)C` (stereo in doubt; 25) yielded an Activity of 23 µg/mL. In assay [2], the Concentration causing nonspecific degranulation (MPO release) was found to be 23 µg/mL.

Regarding `CCC(C)C[C@H]1CC[C@](O)([C@](C)(O)C(=O)N[C@@H]2C(=O)N3NCCC[C@@H]3C(=O)N(O)[C@@H](C)C(=O)NCC(=O)N3NCCC[C@H]3C(=O)N[C@H](C)C(=O)OC2C)O[C@@H]1C` (single isomer, unassigned), the Activity in assay [1] came to 2 µg/mL. Moreover, the Concentration causing nonspecific degranulation (MPO release) in assay [2] was determined as 1 µg/mL.

Regarding `CC(=O)C(=O)N[C@@H]1C(=O)N2NCCC[C@@H]2C(=O)N(O)[C@@H](C)C(=O)NCC(=O)N2NCCC[C@H]2C(=O)N(O)[C@H](C)C(=O)O[C@H]1C(C)C`, the Activity in assay [1] is greater than 100 µg/mL. In assay [2], this compound gave a Concentration causing nonspecific degranulation (MPO release) greater than 13 µg/mL.

On to `CC[C@H](C)C[C@H]1CC[C@](O)([C@](C)(O)C(=O)N[C@@H]2C(=O)N3NCCC[C@@H]3C(=O)N(C)[C@@H](C)C(=O)NCC(=O)N3NCCC[C@H]3C(=O)N(O)[C@H](C)C(=O)O[C@H]2C(C)C)O[C@@H]1C`, for which the Activity in assay [1] stood at 5 µg/mL. Further, the Concentration causing nonspecific degranulation (MPO release) in assay [2] amounted to 2 µg/mL.

For `CCC(C)C[C@H]1CC[C@](O)([C@](C)(O)C(=O)N[C@H]2COC(=O)[C@@H](C)NC(=O)[C@@H]3CCCNN3C(=O)CNC(=O)[C@H](C)N(O)C(=O)[C@H]3CCCNN3C2=O)O[C@@H]1C` (single isomer, unassigned), the Activity in assay [1] was greater than 100 µg/mL. In addition, the Concentration causing nonspecific degranulation (MPO release) in assay [2] came out at 26 µg/mL.

In assay [1], `CC[C@H](C)C[C@H]1CC[C@](O)([C@](C)(O)C(=O)N[C@@H]2C(=O)N3NCCC[C@@H]3C(=O)N(O)[C@@H](C)C(=O)NCC(=O)N3NCCC[C@H]3C(=O)N(OC)[C@H](C)C(=O)O[C@H]2C(C)C)O[C@@H]1C` gave an Activity of 2 µg/mL. Further, the Concentration causing nonspecific degranulation (MPO release) in assay [2] stood at 2 µg/mL.

In turn, `CC[C@H](C)C[C@H]1CC[C@](O)([C@](C)(O)C(=O)N[C@@H]2C(=O)N3NCCC[C@@H]3C(=O)N(OCc3ccccc3)[C@@H](C)C(=O)NCC(=O)N3NCCC[C@H]3C(=O)N(O)[C@H](C)C(=O)O[C@H]2C(C)C)O[C@@H]1C` yielded an Activity in assay [1] of 4 µg/mL. In addition, in assay [2], the Concentration causing nonspecific degranulation (MPO release) turned out to be 0.6 µg/mL.

`CCC(C)C[C@H]1CC[C@H]([C@](C)(O)C(=O)N[C@@H]2C(=O)N3NCCC[C@@H]3C(=O)N(O)[C@@H](C)C(=O)NCC(=O)N3NCCC[C@H]3C(=O)N(O)[C@H](C)C(=O)O[C@H]2C(C)C)O[C@@H]1C` (single isomer, unassigned) gave an Activity in assay [1] of 3.6 µg/mL. The Concentration causing nonspecific degranulation (MPO release) in assay [2] came out at 0.3 µg/mL.

The compound `CCC(C)C[C@H]1CC[C@](O)([C@](C)(O)C(=O)N[C@@H]2C(=O)N3NCCC[C@@H]3C(=O)N[C@@H](C)C(=O)NCC(=O)N3NCCC[C@H]3C(=O)N[C@H](C)C(=O)O[C@H]2C(C)C)O[C@@H]1C` (single isomer, unassigned) yielded an Activity in assay [1] of 40 µg/mL. This compound also had a Concentration causing nonspecific degranulation (MPO release) in assay [2] greater than 50 µg/mL.

`CC[C@H](C)C[C@H]1CC[C@](O)([C@](C)(O)C(=O)N[C@@H]2C(=O)N3NCCC[C@@H]3C(=O)N(OCc3ccccc3)[C@@H](C)C(=O)NCC(=O)N3NCCC[C@H]3C(=O)N[C@H](C)C(=O)O[C@H]2C(C)C)O[C@@H]1C`: the Activity in assay [1] is greater than 100 µg/mL. In assay [2], this compound gave a Concentration causing nonspecific degranulation (MPO release) of 18 µg/mL.

In assay [1], `CC[C@H](C)C[C@H]1CC[C@](O)([C@](C)(O)C(=O)N[C@@H]2C(=O)N3NCCC[C@@H]3C(=O)N(OC)[C@@H](C)C(=O)NCC(=O)N3NCCC[C@H]3C(=O)N(C)[C@H](C)C(=O)O[C@H]2C(C)C)O[C@@H]1C` gave an Activity of 7 µg/mL. The same compound displayed a Concentration causing nonspecific degranulation (MPO release) in assay [2] of 20 µg/mL.

`CC[C@H](C)C[C@H]1CC[C@](O)([C@](C)(O)C(=O)N[C@@H]2C(=O)N3NCCC[C@@H]3C(=O)N(O)[C@@H](C)C(=O)N[C@@H](C)C(=O)N3NCCC[C@H]3C(=O)N(O)[C@H](C)C(=O)O[C@H]2C(C)C)O[C@@H]1C` registered an Activity in assay [1] of 60 µg/mL.

As to `CC[C@H](C)C[C@H]1CC[C@](O)([C@](C)(O)C(=O)N[C@@H]2C(=O)N[C@H](CCCN)C(=O)N(O)[C@@H](C)C(=O)NCC(=O)N3NCCC[C@H]3C(=O)N(O)[C@H](C)C(=O)O[C@H]2C(C)C)O[C@@H]1C`, the Activity in assay [1] was found to be 60 µg/mL. This compound also came in with a Concentration causing nonspecific degranulation (MPO release) in assay [2] greater than 200 µg/mL.

Turning to `CC(C)[C@@H]1OC(=O)[C@@H](C)N(O)C(=O)[C@@H]2CCCNN2C(=O)CNC(=O)[C@H](C)N(O)C(=O)[C@H]2CCCNN2C(=O)[C@H]1NC(=O)[C@@](C)(O)CCCc1ccccc1`, the Activity in assay [1] is greater than 100 µg/mL. For the same compound, the Concentration causing nonspecific degranulation (MPO release) in assay [2] was 9 µg/mL.

`CC[C@H](C)C[C@H]1CC[C@](O)([C@](C)(O)C(=O)N[C@@H]2C(=O)N3NCCC[C@@H]3C(=O)N(CC(=O)OC(C)(C)C)[C@@H](C)C(=O)NCC(=O)N3NCCC[C@H]3C(=O)N(O)[C@H](C)C(=O)O[C@H]2C(C)C)O[C@@H]1C` registered an Activity in assay [1] of 100 µg/mL. The Concentration causing nonspecific degranulation (MPO release) in assay [2] is greater than 50 µg/mL.

`CC(C)[C@@H]1OC(=O)[C@@H](C)N(O)C(=O)[C@@H]2CCCNN2C(=O)CNC(=O)[C@H](C)N(O)C(=O)[C@H]2CCCNN2C(=O)[C@H]1NC(=O)[C@](C)(O)CCCc1ccccc1`: in assay [1], the Activity was found to be 100 µg/mL. For the same compound, the Concentration causing nonspecific degranulation (MPO release) in assay [2] amounted to 12 µg/mL.

Compound `CC[C@H](C)C[C@H]1CC[C@](O)([C@](C)(O)C(=O)N[C@@H]2C(=O)N[C@H](CCCNC(C)=O)C(=O)N(O)[C@@H](C)C(=O)NCC(=O)N3NCCC[C@H]3C(=O)N(O)[C@H](C)C(=O)O[C@H]2C(C)C)O[C@@H]1C` gave an Activity in assay [1] greater than 100 µg/mL. Further, in assay [2], the Concentration causing nonspecific degranulation (MPO release) was greater than 50 µg/mL.

For `CC[C@H](C)C[C@H]1CC[C@](O)([C@](C)(O)C(=O)N[C@@H]2C(=O)N3NCCC[C@@H]3C(=O)N(O)[C@@H](C)C(=O)NCC(=O)N3NCCC[C@H]3C(=O)N(C)[C@H](C)C(=O)O[C@H]2C(C)C)O[C@@H]1C`, in assay [1], the Activity was determined as 5 µg/mL. Besides, the Concentration causing nonspecific degranulation (MPO release) in assay [2] was determined as 4 µg/mL.
